{"source": "patent US20220087970A1", "about": "“PREVENTION OF ANESTHETIC-INDUCED NEUROCOGNITIVE DYSFUNCTION” (The Johns Hopkins University, priority 2019, published 2022)", "type_in_all_cases": "in vivo", "key": {"[1]": {"system": "C57BL6 mice", "assay": "Novel object recognition at PND21", "conditions": "mean ±SD, in s (unit assumed)", "method": "1.3.2 Anesthesia, Peptide, and Molsidomine Injections. PND7 control and experimental mice were placed in a clear plastic cone and body temperature maintained by a heating blanket set to 35° C. Vital signs and physiological monitoring were assessed using PhysioSuite® (Kent Scientific Corporation, Torrington, Conn., USA) and blood gasses were collected arterially. […] Note that lower concentrations of 02 can be used, e.g., between 20% to 100% 02, including 20%, 25%, 30%, 35%, 40%, 45%, 50%, 55%, 60%, 65%, 70%, 75%, 80%, 85%, 90%, 95%, 96%, 97%, 98%, 99%, and 100% 02. Naïve animals were left with the dams. Anesthesia was initiated with 2.4% ISO in 100% oxygen for 2 min and tapered down to 1.5% within 15 min. Exposure to 1.5% ISO was continued for 3 hours and 45 min (total 4 hours ISO). Control ‘CON’ animals were exposed to 100% oxygen only. At the end of the exposure animals were maintained in oxygen on the heating blanket for 10 min then returned to dams. […] Tao and Johns, 2008. A single injection of peptide was given ip. Separate peptide cohorts were injected in parallel with mice undergoing exposure to anesthesia or O2 control. Purification of fusion peptides was performed by Creative BioMart (Shirley, N.Y.) and verified by Coomassie blue staining and Western blot analysis and then stored in 10% glycerol/phosphate buffered saline at −80° C. until use. The Tat-PSD-95 PDZ2WT and MUT plasmids used to generate proteins containing an amino-terminal, in-frame, 11-amino-acid, minimal transduction domain (residues 47-57 of human immunodeficiency virus Tat protein) termed Tat. […] Fang et al., 2003. The NO donor molsidomine [(N-[ethoxycarbonyl]-3-[4-morpholinosydnomine] (Sigma, St. Louis, Mo.) was injected at 4 mg/kg into mice ip in 100 μL sterile saline as previously described. The NO donor was added immediately following cessation of anesthesia or control (O2) exposure, i.e., the NO donor was injected 4 hours after onset of anesthesia. One of ordinary skill in the art upon review of the present disclosure would appreciate that the NO donor could be administered at other times during anesthesia, including at the onset of anesthesia. Control animals were injected ip with the vehicle (saline).\n1.3.7 Novel Object Recognition. The novel object recognition (NOR) procedure was based upon the original Ennaceur et al., 1988, procedure and was used to assess nonspatial hippocampal memory. Clark et al., 2000; Baker and Kim, 2002; Reger et al., 2009. It consisted of a training ‘familiarization’ phase followed by a testing phase. During training, mice were allowed to freely explore within an opaque box (40 cm W×40 cm L×34 cm H) containing two identical objects for 10 min. Data were recorded with a video camera and time spent with each object was recorded using ANYmaze software (Stoelting). Object investigation time was determined by the amount of time the mouse spent in the zone immediately surrounding the object. […] After 2 h, object recognition was tested, using the same procedure as in training except that a novel object was substituted for one of the familiar training objects and mice were allowed to explore for 5 min. Mice inherently prefer to explore novel objects; thus, a preference for the novel object indicates intact memory for the familiar object."}, "[2]": {"system": "caspase-3", "assay": "Western blot for cleaved caspase-3 (apoptosis) after PND7 exposure", "conditions": "PND7 mice, 4 h treatment (1.5% ISO in 100% O2 or peptide 8 mg/kg ip), 2 h following cessation of exposure", "method": "1.3.2 Anesthesia, Peptide, and Molsidomine Injections. PND7 control and experimental mice were placed in a clear plastic cone and body temperature maintained by a heating blanket set to 35° C. Vital signs and physiological monitoring were assessed using PhysioSuite® (Kent Scientific Corporation, Torrington, Conn., USA) and blood gasses were collected arterially. […] Note that lower concentrations of 02 can be used, e.g., between 20% to 100% 02, including 20%, 25%, 30%, 35%, 40%, 45%, 50%, 55%, 60%, 65%, 70%, 75%, 80%, 85%, 90%, 95%, 96%, 97%, 98%, 99%, and 100% 02. Naïve animals were left with the dams. Anesthesia was initiated with 2.4% ISO in 100% oxygen for 2 min and tapered down to 1.5% within 15 min. Exposure to 1.5% ISO was continued for 3 hours and 45 min (total 4 hours ISO). Control ‘CON’ animals were exposed to 100% oxygen only. At the end of the exposure animals were maintained in oxygen on the heating blanket for 10 min then returned to dams. […] Tao and Johns, 2008. A single injection of peptide was given ip. Separate peptide cohorts were injected in parallel with mice undergoing exposure to anesthesia or O2 control. […]\n1.3.3 Western Blotting. […] Proteins were detected by enhanced chemiluminescence (Amersham, Piscataway, N.J.). […]"}, "[3]": {"system": "NR1", "assay": "Western blot of hippocampal synaptic fractions: NR1", "conditions": "one day after PND7 mice exposed to isoflurane (1.5% ISO in O2, 4 h)", "method": "(§1) One day after PND7 mice were exposed to isoflurane (1.5% ISO in O2, 4 h), we harvested hippocampal tissues for Western blotting to assess the expression of receptors and MAGUKs. […] (N=9). A *p<0.05 was considered significant. […] Data shown as % actin;"}, "[4]": {"system": "SAP102", "assay": "Western blot of hippocampal synaptic fractions: SAP102", "conditions": "one day after PND7 mice exposed to isoflurane (1.5% ISO in O2, 4 h)", "method": "as §1"}, "[5]": {"conditions": "PSD93KO mice exposed to ISO at PND7, tested at PND21"}, "[6]": {"conditions": "WT mice exposed at PND7, tested at PND21"}}}
{"compound": "FC(F)OC(Cl)C(F)(F)F", "note": "(racemic) [ISO, (RS)-2-chloro-2-(difluoromethoxy)-1,1,1-trifluoroethane]", "values": [{"measurement": "investigation time of the known object", "setting": "[1]; [5]", "result": "29±13"}, {"measurement": "investigation time of the novel object", "setting": "[1]; [5]", "result": "42±20"}, {"measurement": "investigation time of the known object", "setting": "[1]; [6]", "result": "18±12"}, {"measurement": "investigation time of the novel object", "setting": "[1]; [6]", "result": "29±11"}, {"measurement": "cleaved caspase-3 (Western blot)", "setting": "[2]", "result": "did not yield any detectable cleaved caspase"}, {"measurement": "amount of NR1 in synaptic fractions", "setting": "[3]", "result": "decrease"}, {"measurement": "amount of SAP102 in synaptic fractions", "setting": "[4]", "result": "significant increase"}]}
